Measured values taken from patent US20250199015A1, “CYCLIN-DEPENDENT KINASE 2 INHIBITORS FOR MEDICAL TREATMENT” (INCYCLIX BIO, LLC, priority 2022, published 2025).
Several values for one entry are separate records, joined by “and”; a condition that tells them apart may be missing. Identical values can stand only once. Counter-ions that a name gives are not always drawn. Marks after values point to notes of the source that are not given here.

What was measured:
[1] = Hydration study in ethanol:water mixtures; format: physicochemical; details: 24 hours; for XRPD: solids from slurry
Procedure: A hydration study was carried out on the material according to the following procedure. […] Ethanol: water solutions (Table 77) were added in 250 μL aliquots to a total volume of 1 mL. The slurries were stirred at 25° C. for 24 hours. After 24 hours the slurries were filtered by centrifugation. The solids were isolated and analyzed by XRPD. The solution was isolated and analyzed by HPLC to determine concentration.

[2] = Dynamic Vapor Sorption (DVS); format: physicochemical; details: for DVS uptake, first sorption cycle / DVS uptake, second sorption cycle: 25° C., to 90% RH
Procedure: Approximately 10-20 mg of sample was placed into a mesh vapor sorption balance pan and loaded into a DVS Advantage dynamic vapor sorption balance by Surface Measurement Systems. The sample was subjected to a ramping profile from 40-90% relative humidity (RH) at 10% increments, maintaining the sample at each step until a stable weight had been achieved (dm/dt 0.004%, minimum step length 30 minutes, maximum step length 500 minutes) at 25° C. After completion of the sorption cycle, the sample was dried using the same procedure to 0% RH and then a second sorption cycle back to 40% RH. Two cycles were performed. The weight change during the sorption/desorption cycles were plotted, allowing for the hygroscopic nature of the sample to be determined. XRPD analysis was then carried out on any solid retained.

[3] = 7-day indicative stability (XRPD, HPLC purity); format: physicochemical; details: for change in form after 7 days / purity change after 7 days: ambient
Procedure: The stability of HCl Pattern 1 was determined using the following procedure. HCl Pattern 1 (30 mg) was weighed into 3×2 mL glass vials. The three vials were then stored under the following conditions for 7-days: • Ambient temperature, humidity and light (open vial); • 40° C./75% RH (open vial); • 80° C. (closed vial).
After 7 days, each sample was analyzed by: XRPD to assess form changes and HPLC to determine the purity of the samples.
After 7 days at each storage condition, the solids were analyzed by XRPD to assess any changes in solid form and by HPLC to determine purity.

[4] = Salt screen storage at 40° C./75% RH, XRPD form; format: physicochemical; details: after storage at 40° C./75% RH, scale up from ethyl acetate
Procedure: XRPD analysis was carried out on any isolated solids or gums as described in Example 10 below. The XRPD plate, and the isolated solids, were dried at 40° C. for ca. 24 hours and re-analyzed by XRPD. The XRPD plate was further dried at 40° C./75% RH for ca. 24 hours and XRPD analysis was repeated.
After three days, observations were recorded and solids were isolated by centrifugation. The wet solids were analyzed by XRPD. Solids were dried at 40° C. under vacuum for 72 hours and re-analyzed by XRPD. Solids were dried at 40° C./75% RH for 18 hours and re-analyzed by XRPD.

[5] = Thermodynamic solubility in pH 1, 4.5 and 6.8 buffers; format: physicochemical
Procedure: The thermodynamic solubility of HCl Pattern 1 was determined in duplicate according to the following procedure. HCl Pattern 1 (20 mg) was weighed into 6×2 mL glass vials. Then, 1000 μL of pH 1 hydrochloride, pH 4.5 acetate and pH 6.8 phosphate buffers were added to individual vials in 100 μL aliquots to give white slurries at each pH value. […] The pH was re-recorded and adjusted where necessary. The samples were isolated by centrifuge filtration. […] The concentrations of the saturated solutions were determined by HPLC.
Buffer systems were added in 250 μL aliquots up to a total volume of 1 mL. The pH of each slurry was recorded and adjustments were made to the pH 1 system. No initial adjustment was made to the pH 4.5 or 6.8 system. An aliquot of the slurry was analyzed by XRPD. […] The pH was checked and adjusted where required. The slurries were filtered by centrifugation. The solids were isolated and analyzed by XRPD. The solutions were analyzed by HPLC to determine concentration.

[6] = Disproportionation study in water; format: physicochemical
Procedure: A study disproportionation was carried out using the following procedure. […] The pH was recorded, and the suspension was stirred for ca. 24 hours at 25° C. After 24 hours the pH was recorded, and the slurry was filtered by centrifugation. The solids were isolated and analyzed by XRPD. The solution was isolated and analyzed by HPLC to determine concentration.

[7] = Thermodynamic solubility in pH 1, 4.5 and 6.8 buffers; format: physicochemical; details: for Solubility: 25° C., 24 hours
[8] = Solvate formation or form change in ethanol (thermal cycling); format: physicochemical; details: three days, 40° C./5° C.
Procedure: HCl Pattern 1 was stirred in ethanol to assess any solvation or form change in the solvent system. The following procedure was carried out. HCl Pattern 1 (20 mg) was suspended in 1 mL of ethanol. The suspension was thermally cycled for three days according to the following cycle: • Heat to 40° C. at a rate of 0.1° C./min; • Hold at 40° C. for one hour; • Cool to 5° C. at a rate of 0.1° C./min; • Hold at 5° C. for one hour.
After three days, observations were recorded, and solids were isolated by centrifugation. Wet solids were analyzed by XRPD.

[9] = test system: caspase 3/7 in H526 cells; test: CaspaseGlo-3/7 activation; format: cell-based, human
Procedure: (§1) Plates were removed from incubator and treated with CaspaseGlo-3/7 (Promega, Inc) following manufacturer specifications. Plates were then read on a Biotech luminometer with 1 sec/well integration. Results were converted to Microsoft Excel and transferred to GraphPad Prism for Analysis (FIG. 22D).
as §1, with “from the” for “from”, “incubator at each specified timepoint” for “incubator”, “on” for “on a”, “27A-C).” for “22D).”

[10] = test system: caspase 3/7 in Hs68 cells; test: CaspaseGlo-3/7 in normal fibroblasts; format: cell-based; details: 300 pM to 10 μM; 24, 48 or 72 hours
Procedure: The Hs68 Normal foreskin fibroblast cell line was grown in DMEM-high glucose/1× Glutamax/10% fetal bovine serum and was plated at 1,000 cells/well in Corning 96 well white wall/clear bottom tissue culture treated plates. […] Plates were removed from incubator at each specified timepoint and treated with CaspaseGlo-3/7 (Promega, Inc) following manufacturer specifications. Plates were then read on Biotech luminometer with 1 sec/well integration. Results were converted to Microsoft Excel and transferred to GraphPad Prism for Analysis (FIG. 5A-C).

[11] = 7 days, 40° C./75% RH (open vial)
[12] = 7 days, ambient temperature, humidity and light (open vial)
[13] = pH 6.8 (Phosphate) buffer, 25° C., 24 hours
[14] = residual solids, pH 1 (HCl) buffer, 25° C., 24 hours

## NS(=O)(=O)c1ccc(Nc2ncc3cc4n(c3n2)C2(CCCCC2)C(=O)NN4)cc1.O=P(O)(O)O [phosphate Pattern 7]
[1]; 25° C.
  form after stirring in ethanol:water mixtures: disproportionation of the salt to free base material
[1]; Ethanol:Water (63.6:36.4 % v/v), Calc Aw 0.745, 25° C.
  Solubility: 987.8 µg/mL
[1]; Ethanol:Water (92.9:7.1 % v/v), Calc Aw 0.507, 25° C.
  Solubility: 1664.8 µg/mL
[1]; Ethanol:Water (98.4:1.6 % v/v), Calc Aw 0.257, 25° C.
  Solubility: 1217 µg/mL
[1]; Ethanol:Water (63.6:36.4), Aw 0.745, 25° C.
  XRPD: Free Base Pattern 2
[1]; Ethanol:Water (92.9:7.1), Aw 0.507, 25° C.
  XRPD: Free Base Pattern 3
[1]; Ethanol:Water (98.4:1.6), Aw 0.257, 25° C.
  XRPD: Free Base Pattern 3
[2]
  form post DVS by XRPD: no observable form change had occurred
  hygroscopicity (DVS): moderately hygroscopic
  DVS uptake, first sorption cycle: 4.76%
  DVS uptake, second sorption cycle: 5.18%
[2]; first sorption cycle
  DVS Moisture Uptake at 80% RH: 4.76 wt. %
[2]; post DVS
  XRPD: Phosphate Pattern 7*
[2]; second sorption cycle
  DVS Moisture Uptake at 80% RH: 5.18 wt. %
[3]; 7 Day Stability, 40° C./75% RH
  HPLC Purity: 89.63 % area
[3]; 7 Day Stability, 80° C.
  HPLC Purity: 98.08 % area
[3]; 7 Day Stability, Ambient, Light
  HPLC Purity: 97.90 % area
[3]; [11]
  HPLC Purity: 89.63 % w/w
  Observation: Faint Pink Solid
  XRPD: Phosphate Pattern 7*
[3]; 7 days, 80° C. (closed vial)
  HPLC Purity: 98.08 % w/w
  Observation: White Solid
  XRPD: Phosphate Pattern 7*
[3]; [12]
  HPLC Purity: 97.87 % w/w
  Observation: Faint Yellow Solid
  XRPD: Phosphate Pattern 7*
[3]; 40° C./75% RH, 80° C.
  change in form after 7 days: no observable change in form
  purity change after 7 days: significant decrease in purity
[4]
  XRPD: Pattern 7*
[5]; 24 h Solubility at 37° C., pH 4.5, residual solids
  XRPD: Free Base Pattern 1
[5]; 24 h Solubility at 37° C., pH 6.8, residual solids
  XRPD: Free Base Pattern 1
[5]; pH 1, 4.5, 6.8
  thermodynamic solubility in three buffer systems: low aqueous solubility
[5]; pH 1, 25° C., 24 hours
  residual solids by XRPD: mixture of HCl Pattern 1 and free base
[5]; pH 4.5
  24 h Solubility at 37° C., Concentration: 5.2 µg/mL
[5]; pH 4.5, 25° C., 24 hours
  residual solids by XRPD: dissociation to free base
[5]; pH 6.8
  24 h Solubility at 37° C., Concentration: 4.2 µg/mL
[5]; [13]
  Solubility: 4.2 µg/mL
[5]; pH 6.8, 25° C., 24 hours
  residual solids by XRPD: dissociation to free base
[5]; [14]
  XRPD: HCl Pattern 1
[5]; residual solids, pH 4.5 (Acetate) buffer, 25° C., 24 hours
  XRPD: Free base
[5]; residual solids, pH 6.8 (Phosphate) buffer, 25° C., 24 hours
  XRPD: Free base
[6]; 25° C., ca. 24 hours
  form after stirring in water: indicative of disproportionation
[6]; slurry at 25° C. in water, 24 hours
  XRPD: Free Base Pattern 10
[7]; 24 h Solubility at 37° C., pH 1.2, residual solids
  XRPD: HCl Pattern 1
[7]; pH 1 (HCl) buffer
  Solubility: 3.8 µg/mL and 2.7 µg/mL
[7]; pH 4.5 (Acetate) buffer
  Solubility: 5.8 µg/mL and 5.2 µg/mL

## NS(=O)(=O)c1ccc(Nc2ncc3cc4n(c3n2)C2(CCCCC2)C(=O)NN4)cc1 [HCl Pattern 1]
[2]
  form post DVS by XRPD: no observable form change had occurred
  hygroscopicity (DVS): moderately hygroscopic
  DVS uptake, first sorption cycle: 5.15%
  DVS uptake, second sorption cycle: 5.10%
[3]; [11]
  HPLC Purity: 97.98 % w/w
  Observation: White Solid
  XRPD: HCl Pattern 1
[3]; 7 days, 80° C. (closed vial)
  HPLC Purity: 96.97 % w/w
  Observation: White Solid
  XRPD: HCl Pattern 1
[3]; [12]
  HPLC Purity: 98.02 % w/w
  Observation: Yellow Solid
  XRPD: HCl Pattern 1
[3]; 40° C./75% RH, 80° C.
  change in form after 7 days: no observable change in form
  purity change after 7 days: decrease in purity was noted for all samples
[5]; pH 1 (HCl) buffer, 25° C., 24 hours
  Solubility: 2.7 µg/mL
[5]; pH 1 hydrochloride buffer, 25 °C, pH 1, simulated gastric fluid, thermodynamic from solid, pH 1 (HCl) buffer, 24 hours
  solubility at 24 h: 3.8 µg/mL
[5]; pH 4.5 (Acetate) buffer, 25° C., 24 hours
  Solubility: <LOQ
[5]; pH 4.5, 25° C., 24 hours
  residual solids by XRPD: formation of free base
[5]; [13]
  Solubility: <LOQ
[5]; pH 6.8, 25° C., 24 hours
  residual solids by XRPD: formation of free base
[5]; [14]
  XRPD: 1
[8]
  form after thermal cycling in ethanol: produced HCl Pattern 2

## CN[C@@H]1C[C@H]2O[C@@](C)([C@@H]1OC)n1c3ccccc3c3c4c(c5c6ccccc6n2c5c31)C(=O)NC4 [staurosporine]
[9]; 24 hours
  caspase 3/7 activation: robust caspase 3/7 activation
[9]; Homo sapiens, NCI-H526, 72 hours
  IC50: 6 nM
[10]
  caspase 3/7 activation: substantial increase
